Experimental data from PMC6889161, “Inhibitory characteristics of flavonol-3-O-glycosides from Polygonum aviculare L. (common knotgrass) against porcine pancreatic lipase” (Scientific Reports, 2019).

Key:
[1] = test system: T1, pancreatic lipase (PL); assay: Fluorescence emission spectroscopy (tryptophan fluorescence quenching of PL); format: binding, porcine; conditions: for kq (bimolecular quenching constant): calculated from KSV with τ0 = 1.59 ns; for KSV (Stern-Volmer quenching constant): excitation 295 nm, 40 µM PL; for KA (binding constant) / n (number of binding sites): double-logarithmic equation
T1 construct: purchased Sigma-Aldrich Co. (St. Louis, MO, USA); host or cells: porcine pancreas (tissue preparation)
Protocol: The fluorescence spectra of PL in the presence of the sample were measured on a SpectraMax® i3 Multi-Mode Microplate Reader (Molecular Devices) as described previously with slight modification. In brief, aliquots of the sample solution at various concentrations (0−100 µM) were added into 40 µM of PL solution. The mixture was incubated for 30 min at 25 °C and 37 °C, and the fluorescence emission spectra were measured in the range of 315−400 nm upon excitation at 295 nm. The excitation and emission slit widths were set at 9 and 15 nm, respectively. The fluorescence data were analyzed by fitting to the Stern-Volmer equation for analysis of fluorescence quenching[23]:4 F0/F=1+KSV[Q]=1+kqτ0[Q] where F0 and F is the fluorescence intensity in the absence and presence of quencher, respectively, kq is the bimolecular quenching constant, τ0 is the lifetime of fluorescence in the absence of quencher, KSV is the Stern-Volmer quenching constant, and [Q] is the concentration of quencher. KSV was obtained from the slope of a plot of F0/F versus [Q] by linear regression curve fitting, and kq was calculated by KSV, where τ0 is equal to 1.59 ns[31]. The binding constant (KA) and number of binding sites (n) were obtained according to a double-logarithmic equation[32]:5 logF0−F/F=logKA+nlog[Q]

[2] = biological target: T2, Lipase from porcine pancreas type II (pancreatic lipase) (Sus scrofa, UniProt P00591); assay: Pancreatic lipase inhibition assay (4-MUO substrate, fluorescence); format: biochemical; conditions: for Inhibition mode (type of inhibition): Lineweaver-Burk plots at 50 μM and 100 μM of compound; for IC50: from RRA of PL at various concentrations, nonlinear regression
T2 construct: purchased Sigma-Aldrich Co. (St. Louis, MO, USA); host or cells: porcine pancreas (tissue preparation)
T2 sequence (P00591 1-450): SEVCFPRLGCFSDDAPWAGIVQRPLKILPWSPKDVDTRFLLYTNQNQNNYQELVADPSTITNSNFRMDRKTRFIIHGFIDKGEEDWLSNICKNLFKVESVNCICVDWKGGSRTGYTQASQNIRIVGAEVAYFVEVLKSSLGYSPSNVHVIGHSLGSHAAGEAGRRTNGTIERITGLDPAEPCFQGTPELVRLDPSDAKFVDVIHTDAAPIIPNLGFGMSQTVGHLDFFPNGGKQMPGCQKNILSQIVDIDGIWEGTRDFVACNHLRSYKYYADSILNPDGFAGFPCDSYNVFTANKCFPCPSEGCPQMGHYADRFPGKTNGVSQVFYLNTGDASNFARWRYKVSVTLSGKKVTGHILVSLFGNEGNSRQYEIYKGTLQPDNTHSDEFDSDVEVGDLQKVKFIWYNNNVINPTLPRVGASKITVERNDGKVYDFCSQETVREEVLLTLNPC
Protocol: The PL assay using 4-MUO as a substrate was conducted as described previously with slight modification[28],[29]. Lipase from porcine pancreas type II (i.e., pancreatic lipase) was dissolved in 50 mM Tris-HCl buffer (pH 8.0) to give 10 mg/mL, and centrifuged at 5,000 g for 10 min to remove insoluble material before the enzyme assay. Then, 50 µL of 0.5 mM 4-MUO solution dissolved in the above buffer and 100 µL of the sample solution dissolved in methanol (i.e., the inhibitor solution) were mixed in 96-well microplate to form the reaction system. The enzymatic hydrolysis was initiated by adding 50 µL of the PL solution to the reaction system (final 250 units/mL) at 37 °C. […] The inhibitory activities against PL were calculated for comparison with each other, as follows:1 Inhibition(%)=A0−AS/A0×100 where A0 is the relative fluorescence unit after the reaction for 30 min in the absence of sample (i.e., only methanol) and AS is the fluorescence unit in the presence of sample.
To determine the IC50, the RRA of PL in the presence of the sample at various concentrations was evaluated. The reaction of PL was measured by the same procedure described above, and the RRA was calculated from the following equation:2 Relativeresidualactivity(%)=vS/v0×100 where ν0 is the initial velocity of the reaction in the absence of sample (i.e., only methanol) and νS is the initial velocity in the presence of sample. […] The type of inhibition was elucidated by evaluating the changes of kinetic parameters from Lineweaver-Burk plot as follows:3 1/v=Km/Vmax1/[S]+1/Vmax where [S] is the concentration of substrate, v is the initial velocity of the reaction, Vmax is the maximum initial velocity when substrate approaches infinite concentration, and Km is the dissociation constant of the enzyme-substrate complex (i.e., the Michaelis constant).

Compound: C[C@@H]1O[C@@H](Oc2c(-c3ccc(O)c(O)c3)oc3cc(O)cc(O)c3c2=O)[C@H](O)[C@H](O)[C@H]1O [Quercitrin, quercetin-3-O-α-L-rhamnopyranoside]
- kq (bimolecular quenching constant) ([1]; 25 °C): 8.05 10^12 M^−1s^−1
- KSV (Stern-Volmer quenching constant) ([1]; 25 °C): 1.28 10^4 M^−1
- kq (bimolecular quenching constant) ([1]; 37 °C): 8.30 10^12 M^−1s^−1
- KA (binding constant) ([1]; 37 °C): 1.00 10^4 M^−1
- n (number of binding sites) ([1]; 37 °C): 0.9760
- KSV (Stern-Volmer quenching constant) ([1]; 37 °C): 1.32 10^4 M^−1
- KA (binding constant) [1]: 10000 M⁻¹
- Inhibition mode (type of inhibition) [2]: non-competitive or mixed-type inhibition
- IC50 [2]: 101 µM

Compound: O=c1c(O)c(-c2ccc(O)c(O)c2)oc2cc(O)cc(O)c12 [Quercetin]
- kq (bimolecular quenching constant) ([1]; 25 °C): 6.29 10^12 M^−1s^−1
- KSV (Stern-Volmer quenching constant) ([1]; 25 °C): 1.00 10^4 M^−1
- kq (bimolecular quenching constant) ([1]; 37 °C): 5.91 10^12 M^−1s^−1
- KA (binding constant) ([1]; 37 °C): 3.57 10^4 M^−1
- n (number of binding sites) ([1]; 37 °C): 1.1471
- KSV (Stern-Volmer quenching constant) ([1]; 37 °C): 0.94 10^4 M^−1
- KA (binding constant) [1]: 35700 M⁻¹
- Inhibition mode (type of inhibition) [2]: competitive inhibition

Compound: O=c1c(O[C@@H]2O[C@@H](CO)[C@H](O)[C@H]2O)c(-c2ccc(O)c(O)c2)oc2cc(O)cc(O)c12 [Avicularin, quercetin-3-O-α-L-arabinofuranoside]
- kq (bimolecular quenching constant) ([1]; 25 °C): 3.52 10^12 M^−1s^−1
- KSV (Stern-Volmer quenching constant) ([1]; 25 °C): 0.56 10^4 M^−1
- kq (bimolecular quenching constant) ([1]; 37 °C): 3.71 10^12 M^−1s^−1
- KA (binding constant) ([1]; 37 °C): 0.94 10^4 M^−1
- n (number of binding sites) ([1]; 37 °C): 1.1119
- KSV (Stern-Volmer quenching constant) ([1]; 37 °C): 0.59 10^4 M^−1
- KA (binding constant) [1]: 9400 M⁻¹
- Inhibition mode (type of inhibition) [2]: non-competitive or mixed-type inhibition
- IC50 [2]: 142 µM

Compound: myricetin-3-O-α-L-rhamnopyranoside [Myricitrin]
- kq (bimolecular quenching constant) ([1]; 25 °C): 7.48 10^12 M^−1s^−1
- KSV (Stern-Volmer quenching constant) ([1]; 25 °C): 1.19 10^4 M^−1
- kq (bimolecular quenching constant) ([1]; 37 °C): 7.74 10^12 M^−1s^−1
- KA (binding constant) ([1]; 37 °C): 1.45 10^4 M^−1
- n (number of binding sites) ([1]; 37 °C): 1.0228
- KSV (Stern-Volmer quenching constant) ([1]; 37 °C): 1.23 10^4 M^−1
- KA (binding constant) [1]: 14500 M⁻¹
- Inhibition mode (type of inhibition) [2]: non-competitive or mixed-type inhibition

Compound: O=c1c(O)c(-c2ccc(O)cc2)oc2cc(O)cc(O)c12 [Kaempferol]
- kq (bimolecular quenching constant) ([1]; 25 °C): 7.67 10^12 M^−1s^−1
- KSV (Stern-Volmer quenching constant) ([1]; 25 °C): 1.22 10^4 M^−1
- kq (bimolecular quenching constant) ([1]; 37 °C): 6.48 10^12 M^−1s^−1
- KA (binding constant) ([1]; 37 °C): 2.07 10^4 M^−1
- n (number of binding sites) ([1]; 37 °C): 1.1103
- KSV (Stern-Volmer quenching constant) ([1]; 37 °C): 1.03 10^4 M^−1
- KA (binding constant) [1]: 20700 M⁻¹
- Inhibition mode (type of inhibition) [2]: competitive inhibition
- IC50 [2]: 79.4 µM
